From PMC7587356, “High-Throughput Screening for Inhibitors of the SARS-CoV-2 Protease Using a FRET-Biosensor” (Molecules, 2020)
Where a name gives a salt, the structure may show the parent alone. Read-outs that look alike come from different tables or passages of the source.

Molecular target: SARS-CoV-2 3CLpro (Severe acute respiratory syndrome coronavirus 2, UniProt P0DTD1)
Experiment: biochemical
Format: biochemical
Parameters: Replicate_1 / Replicate_2 / mean / mean (LOPAC_screen_w_protease): unit not given here
Details: for inhibition at 5 µM: 4 h; for mean (LOPAC screen with protease) / Replicate_1 (LOPAC screen with protease) / Replicate_2 (LOPAC screen with protease): primary screen at 5 µM
[1] = sheet LOPAC_screen_w_protease, primary screen with protease, mean of two replicates
[2] = sheet LOPAC_screen_w_protease, primary screen with protease, replicate 1
[3] = sheet LOPAC_screen_w_protease, primary screen with protease, replicate 2
[4] = LOPAC1280 primary screen with protease, 5 µM compound, replicate 1, read-out: Replicate_1 (LOPAC_screen_w_protease)
[5] = LOPAC1280 primary screen with protease, 5 µM compound, replicate 2, read-out: Replicate_2 (LOPAC_screen_w_protease)
[6] = LOPAC1280 primary screen with protease, 5 µM compound, mean of the two replicates
[7] = sheet LOPAC_screen_w_protease, primary screen with protease, 5 µM, mean of two replicates
[8] = sheet LOPAC_screen_w_protease, primary screen with protease, 5 µM, replicate 1
[9] = sheet LOPAC_screen_w_protease, primary screen with protease, 5 µM, replicate 2
[10] = read-out: Replicate_1 (LOPAC_screen_w_protease)
[11] = read-out: Replicate_2 (LOPAC_screen_w_protease)
[12] = sheet LOPAC_screen_w_protease, mean of two replicates
[13] = sheet LOPAC_screen_w_protease, replicate 1
[14] = sheet LOPAC_screen_w_protease, replicate 2
[15] = LOPAC1280 primary screen with protease, 5 µM compound, mean of two replicates
[16] = sheet LOPAC_screen_w_protease, primary screen of LOPAC1280 at 5 µM with protease, mean of the two replicates
[17] = sheet LOPAC_screen_w_protease, primary screen of LOPAC1280 at 5 µM with protease, replicate 1
[18] = sheet LOPAC_screen_w_protease, primary screen of LOPAC1280 at 5 µM with protease, replicate 2
[19] = LOPAC1280 primary screen with protease, 5 µM compound, replicate 1
[20] = LOPAC1280 primary screen with protease, 5 µM compound, replicate 2
[21] = sheet LOPAC_screen_w_protease, LOPAC1280 primary screen with protease, 5 µM compound, mean of the two replicates, read-out: mean
[22] = sheet LOPAC_screen_w_protease, LOPAC1280 primary screen with protease, 5 µM compound, replicate 1, read-out: Replicate_1
[23] = sheet LOPAC_screen_w_protease, LOPAC1280 primary screen with protease, 5 µM compound, replicate 2, read-out: Replicate_2
[24] = sheet LOPAC_screen_w_protease, primary screen with protease, mean of two replicates, read-out: mean
[25] = sheet LOPAC_screen_w_protease, primary screen with protease, replicate 1, read-out: Replicate_1
[26] = sheet LOPAC_screen_w_protease, primary screen with protease, replicate 2, read-out: Replicate_2

COc1cccc(C(=O)NCCN2CCN(c3ccc(Cl)cc3)CC2)c1
mean [1]: 2.269
Replicate_1 [2]: 1.008
Replicate_2 [3]: 3.529

CCCCCCCCCCCCCCCCOCC(COCC(F)(F)F)OP(=O)(O)OC (stereo not drawn) [MJ33]
Replicate_1: 1.4444
Replicate_2: -0.2702
mean: 0.5871

CN1CCN(CC(=O)N2c3ccccc3C(=O)Nc3cccnc32)CC1 [Pirenzepine dihydrochloride]
inhibition at 5 µM [4]: 2.98%
inhibition at 5 µM [5]: 0.888%
mean (LOPAC_screen_w_protease) [6]: 1.931

CC(C(=O)O)c1ccc(CC2CCCC2=O)cc1 (stereo not drawn) [loxoprofen]
inhibition at 5 µM (sheet LOPAC_screen_w_protease, LOPAC1280 at 5 µM, mean of two replicates, read-out: mean): 1.2%
inhibition at 5 µM (sheet LOPAC_screen_w_protease, LOPAC1280 at 5 µM, replicate 1, read-out: Replicate_1): 0.313%
inhibition at 5 µM (sheet LOPAC_screen_w_protease, LOPAC1280 at 5 µM, replicate 2, read-out: Replicate_2): 2.09%

NCC(O)(CS(=O)(=O)O)c1ccc(Cl)cc1 (stereo not drawn) [2-Hydroxysaclofen]
mean (sheet LOPAC_screen_w_protease, LOPAC1280 primary screen at 5 µM, with protease, mean of the two replicates): 0.8279
Replicate_2 (sheet LOPAC_screen_w_protease, LOPAC1280 primary screen at 5 µM, with protease, replicate 2): -0.8627

CC(=O)OC(C)C[N+](C)(C)C.[Cl-] (stereo not drawn) [Acetyl-beta-methylcholine chloride]
mean [7]: 0.2718
Replicate_1 [8]: 1.198
Replicate_2 [9]: -0.6541

O=c1c(-c2ccc(O)cc2)coc2cc(O)cc(O)c12 [Genistein]
inhibition at 5 µM [10]: 2.15%
inhibition at 5 µM [11]: 0.656%

Nc1ccc2c3c(cccc13)C(=O)NC2=O [4-Amino-1,8-naphthalimide]
mean (LOPAC screen with protease) [12]: 6.555
Replicate_1 (LOPAC screen with protease) [13]: 8.124
Replicate_2 (LOPAC screen with protease) [14]: 4.986

FC(F)(F)c1ccccc1-n1ccnc1 [1-[2-(Trifluoromethyl)phenyl]imidazole]
mean [7]: -0.5336
Replicate_1 [8]: 0.8297
Replicate_2 [9]: -1.897

O=C(O)CN(CCOCCOCCN(CC(=O)O)CC(=O)O)CC(=O)O
Replicate_1: 4.424
Replicate_2: 0.4872
mean: 2.456

Nc1nc(OCc2ccccc2)c2nc[nH]c2n1 [O6-benzylguanine]
inhibition at 5 µM [4]: 0.721%
inhibition at 5 µM [5]: 2.08%
mean (LOPAC_screen_w_protease) [15]: 1.401

NC1CCN(O)C1=O (racemic) [(±)-HA-966]
Replicate_1: 0.2172
Replicate_2: 1.666
mean: 0.9415

N#C/C(=C\c1ccc(O)c(O)c1)C(=O)NCCCc1ccccc1 [Tyrphostin AG 555]
mean [16]: 3.848
Replicate_1 [17]: 4.708
Replicate_2 [18]: 2.988

CCCn1c(=O)c2[nH]c(C3CCCC3)nc2n(CCCOC(=O)c2ccc(S(=O)(=O)F)cc2)c1=O [FSCPX]
mean (LOPAC screen with protease) [12]: 6.832
Replicate_1 (LOPAC screen with protease) [13]: 8.115
Replicate_2 (LOPAC screen with protease) [14]: 5.548

Cc1cc(O)c2c(c1)C(=O)c1cc(O)cc(O)c1C2=O [Emodin]
inhibition at 5 µM (read-out: Replicate_1 (LOPAC screen with protease)): 10.9%
inhibition at 5 µM (read-out: Replicate_2 (LOPAC screen with protease)): 5.72%
inhibition at 5 µM (read-out: mean (LOPAC screen with protease)): 8.32%

N#C/C(=C\c1ccc(O)c(O)c1)C(=O)c1ccc(O)c(O)c1 [Tyrphostin AG 538]
mean (LOPAC_screen_w_protease) [15]: 1.741
Replicate_1 (LOPAC_screen_w_protease) [19]: 1.926
Replicate_2 (LOPAC_screen_w_protease) [20]: 1.555

C=CCN1CC[C@]23CCCC[C@H]2[C@H]1Cc1ccc(O)cc13 [Levallorphan tartrate]
inhibition at 5 µM [21]: 4.19%
inhibition at 5 µM [22]: 5.56%
inhibition at 5 µM [23]: 2.81%

NCC1(CC(=O)O)CCCCC1 [Gabapentin]
mean (LOPAC_screen_w_protease): 1.9821
inhibition at 5 µM [10]: 3.94%
inhibition at 5 µM [11]: 0.0248%

Cl.N[C@@H](Cc1cnc[nH]1)C(=O)O [L-Histidine hydrochloride]
mean [16]: 3.829
Replicate_1 [17]: 4.566
Replicate_2 [18]: 3.093

OCc1ccc(-c2nn(Cc3ccccc3)c3ccccc23)o1 [YC-1]
mean (LOPAC_screen_w_protease) [15]: 1.333
Replicate_1 (LOPAC_screen_w_protease) [19]: 0.3284
Replicate_2 (LOPAC_screen_w_protease) [20]: 2.338

Cc1cc(N)c2ccccc2[n+]1CCCCCCCCCC[n+]1c(C)cc(N)c2ccccc21 [Dequalinium dichloride]
inhibition at 5 µM (read-out: Replicate_1): 2.94%
inhibition at 5 µM (read-out: Replicate_2): 1.41%
inhibition at 5 µM (read-out: mean): 2.17%

C[C@@H]1C(=O)NC2=Nc3cccc(Cl)c3CN21 [Quazinone]
inhibition at 5 µM [21]: 4.1%
inhibition at 5 µM [22]: 4.2%
inhibition at 5 µM [23]: 4%

C[N+](C)(C)CC#CCOC(=O)Nc1cccc(Cl)c1.[Cl-] [McN-A-343]
mean [16]: 3.792
Replicate_1 [17]: 2.713
Replicate_2 [18]: 4.871

CCCCCCCCCCCCCCCC(=O)OC(CC(=O)O)C[N+](C)(C)C.[Cl-] (racemic) [Palmitoyl-DL-Carnitine chloride]
mean (sheet LOPAC_screen_w_protease, primary screen with protease, compound at 5 µM, mean of two replicates): 2.684
Replicate_1 (sheet LOPAC_screen_w_protease, primary screen with protease, compound at 5 µM, replicate 1): 2.378
Replicate_2 (sheet LOPAC_screen_w_protease, primary screen with protease, compound at 5 µM, replicate 2): 2.9894

CCN1CCC[C@H]1CNC(=O)c1cc(S(N)(=O)=O)ccc1OC [(-)-Sulpiride]
inhibition at 5 µM [4]: 0.997%
mean (LOPAC_screen_w_protease) [15]: 1.652

CCCCC[C@H](CC(=O)NO)C(=O)N[C@H](C(=O)N1CCC[C@H]1CO)C(C)C [Actinonin]
inhibition at 5 µM [4]: 1.42%
inhibition at 5 µM [5]: 1.48%
mean (LOPAC_screen_w_protease) [15]: 1.4498

Cc1cc(N)c2ccccc2[n+]1CCCCCCCCCCCCCC[n+]1c(C)cc(N)c2ccccc21.[I-].[I-] [Dequalinium analog, C-14 linker]
mean (LOPAC screen with protease) [12]: 11.1281
Replicate_1 (LOPAC screen with protease) [13]: 10.1675
Replicate_2 (LOPAC screen with protease) [14]: 12.0887

O=C(O)C1=CCCNC1 [Guvacine hydrochloride]
inhibition at 5 µM [24]: 2.3%
inhibition at 5 µM [25]: 4.35%
inhibition at 5 µM [26]: 0.255%

Cc1c2ccncc2c(C)c2c1[nH]c1ccccc12 [Ellipticine]
inhibition at 5 µM [24]: 2.32%
inhibition at 5 µM [25]: 4.78%
inhibition at 5 µM [26]: -0.147%

OCCN1CCN(CCCN2c3ccccc3Sc3ccc(C(F)(F)F)cc32)CC1 [Fluphenazine dihydrochloride]
inhibition at 5 µM [4]: 4.18%
inhibition at 5 µM [5]: -0.136%
mean (LOPAC_screen_w_protease) [6]: 2.023

O=C(O)c1cc(=O)c2c(Cl)cc(Cl)cc2[nH]1 [5,7-Dichlorokynurenic acid]
mean [16]: 3.519
Replicate_1 [17]: 3.053
Replicate_2 [18]: 3.985

Nc1nccc2c1ncn2[C@@H]1O[C@H](CO)[C@@H](O)[C@H]1O [3-deazaadenosine]
mean [16]: 3.161
Replicate_1 [17]: 4.639
Replicate_2 [18]: 1.683

CCC1(c2ccc(N)cc2)CCC(=O)NC1=O (racemic) [(±)-p-Aminoglutethimide]
mean [1]: 2.443
Replicate_1 [2]: 1.25
Replicate_2 [3]: 3.637

O=C(O)CP(=O)(O)O [Phosphonoacetic acid]
inhibition at 5 µM (sheet LOPAC_screen_w_protease, LOPAC1280 primary screen at 5 µM, with protease, mean of the two replicates, read-out: mean): 0.854%
inhibition at 5 µM (sheet LOPAC_screen_w_protease, LOPAC1280 primary screen at 5 µM, with protease, replicate 1, read-out: Replicate_1): 0.755%
inhibition at 5 µM (sheet LOPAC_screen_w_protease, LOPAC1280 primary screen at 5 µM, with protease, replicate 2, read-out: Replicate_2): 0.954%

CC[C@H](C)C(=O)O[C@H]1CCC=C2C=C[C@H](C)[C@H](CC[C@@H]3C[C@@H](O)CC(=O)O3)[C@H]21 [Mevastatin]
inhibition at 5 µM [21]: 4.58%
inhibition at 5 µM [22]: 3.98%
inhibition at 5 µM [23]: 5.17%

O.c1cnc2c(c1)ccc1cccnc12 [1,10-Phenanthroline monohydrate]
mean [7]: 0.3766
Replicate_1 [8]: -0.05956
Replicate_2 [9]: 0.8127

O=C(Nc1cccc(C(=O)Nc2ccc(S(=O)(=O)O)c3cc(S(=O)(=O)O)cc(S(=O)(=O)O)c23)c1)Nc1cccc(C(=O)Nc2ccc(S(=O)(=O)O)c3cc(S(=O)(=O)O)cc(S(=O)(=O)O)c23)c1 [NF 023, reference compound]
mean (sheet LOPAC_screen_w_protease, LOPAC1280 primary screen with protease, 5 µM compound, mean of the two replicates): 6.11
Replicate_1 (sheet LOPAC_screen_w_protease, LOPAC1280 primary screen with protease, 5 µM compound, replicate 1): 5.845
Replicate_2 (sheet LOPAC_screen_w_protease, LOPAC1280 primary screen with protease, 5 µM compound, replicate 2): 6.375
